The values that follow are results of earlier work, collected in US8084059B2, “Antidepressant dosage form” (ALZA Corporation, priority 1993, dated 2011).

Series [1] concerns neuronal uptake of morepinephrine. The following applies: in vitro.
Series [2] has as its system neuronal uptake of dopamine. The conditions noted are these: in vitro.
Series [3] deals with cyclicadenosine monophosphate subsensitivity. The conditions noted are these: after both acute and chronic administration.
The conditions of series [4]: humans.
The subject of series [5] is histamine-induced corticotropin release. The following applies: in vivo.
The next series relates to effects of levodopa. The following applies: in vivo.
In another series the test system is monoamine oxidase. The conditions noted are these: in vitro.
Series [6] relates to reserpine-induced hypothermia. The following applies: in vivo.

As to `COc1ccc(C(CN(C)C)C2(O)CCCCC2)cc1` (centres unmarked) [1-[2-(dimethylamino)-1-(4-methoxyphenyl)ethyl]cyclohexanol], in series [1], the “neuronal uptake of morepinephrine” value is on record as “prevents”. Moreover, in series [2], the “neuronal uptake of dopamine” value is listed as “prevents”. Further, the cyclicadenosine monophosphate subsensitivity result in series [3] is reported as “induces”. Also, the antidepressant activity result in series [4] was “excellent”. In addition, the “effect on histamine-induced corticotropin release” value in series [5] was “reduces”. Further, the “effect on the effects of levodopa” value in the series with effects of levodopa is recorded as “potentiates”. Besides, in the series with monoamine oxidase, the “inhibition of monoamine oxidase” value is listed as “does not inhibit”. In addition, the “effect on reserpine-induced hypothermia” value in series [6] is on record as “antagonizes”.
